One molecule from patent US11034970B2, “Production of protein from hairy roots of a Brassicaceae plant utilizing rhizobium comprising rol genes” (UNIVERSITE DE PICARDIE JULES VERNE, priority 2015, dated 2021) can be followed below.

Common to all, as to assay type: cell-based, Brassica rapa
The test system of assay [1] is hairy roots of the clone 2M1. Nature of the assay: Test 1: quantification by fluorometry of GFP secreted in the culture medium (Petri dishes). The method, then:
(§1) In order to modify the morphology of the hairy roots and prevent the development of the root hairs, roots of the clone 2M1 producing GFP were cultured in B53 liquid medium for two weeks. This culture medium was then removed and replaced with fresh B53 medium containing 2,4-dichlorophenoxyacetic acid (2,4-D), an auxin-type hormone, at 0.5 mg/l.
(§2) For the quantification of 6× His-EGFP, culture medium was diluted to 20× or 40× in a 50 mM tris buffer at pH 7.5. The fluorescence of the solution was measured using the BioRad VersaFluor™ fluorometer (excitation filter 485-495 nm; emission filter 505-515 nm). The calibration of the fluorometer was carried out using the commercially available recombinant 6× His-EGFP (BioVision) at a concentration of 10 mg/l.
After culture of hairy roots of the clone 2M1 in B53 liquid medium for two weeks, this medium was replaced with fresh B53 medium containing 2,4-D auxin at 0.5 mg/l, in order to induce the development of lateral root emergences. The hairy roots of the clone 2M1 were thus cultured in Petri dishes containing 5 ml of B53 medium with 2,4-D added, at 23° C. and under stirring at 56 rpm.
The GFP secreted in the culture medium by the hairy roots having lateral root emergences, was quantified (10 repetitions) one and two weeks after the addition of 2,4-D auxin at 0.5 mg/l (Table 2).
Hairy roots of the clone 2M1 were cultured (9 repetitions) under the same conditions changing the B53 medium with fresh B53 medium but without the addition of auxin after culture for the first two weeks, in order to constitute control batches of hairy roots.

For assay [2], the system named is hairy roots of the clone 2M1. Nature of the assay: Test 2: GFP secreted in the culture medium, Erlenmeyer flasks, two renewals of medium. To be noted: 2,4-D 1 mg/l, first change of medium. The method, then: as §2
The clone 2M1 was inoculated at t0 into 5 Erlenmeyer flasks at a rate of 2 g of fresh roots in 100 ml of B53 medium. After culture at 26° C. with a stirrer at 110 rpm for 15 days, the roots have reached a mass of 24.4 g+/−3.90.
A first change of medium was then carried out in each of the flasks as follows; • in two flasks, the B53 medium was replaced with fresh B53 medium in order to carry out two repetitions for the control hairy roots; • in three flasks, the B53 medium was replaced with B53 medium with 2,4-D added at 1 mg/l in order to carry out three repetitions for inducing the development of lateral root emergences;
The GFP secreted in the culture medium was quantified 7 to 14 days after this first change of medium.
A second change of medium was then carried out in these same flasks, in an identical manner:
in the two flasks of control hairy roots. the B53 medium was replaced with fresh B53 medium; […]

Assay [3] concerns hairy roots of the clone 2M1. Nature of the assay: Test 3: GFP concentration in the culture medium after culture for 21 days (Petri dishes). As to conditions: 2,4-D 1 mg/l. The method, then:
as §2
Roots of the clone 2M1 were inoculated in 14 Petri dishes, each containing 5 ml of liquid B53 culture medium. They were cultured at 26° C. under stirring at 110 rpm for 17 days.
The medium was then changed in the Petri dishes as follows: • in seven Petri dishes, the medium was removed and replaced with fresh B53 culture medium with 2,4-D added at 1 mg/l (LRE 1 to 7) in order to induce the development of lateral root emergences in these dishes; • and in the other seven Petri dishes, the medium was removed and replaced with fresh B53 culture medium (Controls 1 to 7).
The roots were maintained at 26° C. under stirring at 110 rpm for 21 days.

The subject of assay [4] is hairy roots of the clone LG5. Nature of the assay: Human gastric lipase activity in the liquid culture medium (4-methylumbelliferyl oleate substrate). As to conditions: 2,4-D 1 mg/l. The method, then: For this study, a subculture was carried out in six empty Erlenmeyer flasks, to which 1 g of biomass of the same mass of roots of the clone LG5 and 100 ml of liquid Gamborg B53 medium are added. The roots are cultured at 26° C. and under stirring at 110 rpm for two weeks.
In order to induce the development of lateral root emergences (LRE) in three Erlenmeyer flasks, this liquid medium is replaced with fresh B53 culture medium containing 2,4-dichlorophenoxyacetic acid (2,4-D) at 1 mg/l.
In the other three Erlenmeyer flasks having conventional hairy roots (HR), it is replaced with fresh B53 liquid culture medium, without 2,4-D.
After culture for two weeks at 26° C. with stirring at 110 rpm, a second change of medium was carried out in the flasks in an identical manner, in order to replace the culture medium with a fresh culture medium with +/−2,4-D at 1 mg/l.
The activity of the human gastric lipase is measured directly from the liquid culture media in the 6 flasks (14 days and 28 days after induction). The enzymatic activity is measured at 37° C. using 4-methylumbelliferyl oleate (0.1 mM) as substrate. The fluorescence of the 4-methylumbelliferone (MU), product of the enzyme reaction by the gastric lipase, is measured with a fluorometer (Excitation: 330 nm; Emission: 450 nm). This fluorescence is correlated to the human gastric lipase activity (FIG. 11).

In assay [5] the test system is hairy roots of the clone 2M1. Nature of the assay: Induction of lateral root emergences on hairy roots, morphology. To be noted: 2,4-D 0.5 mg/l in B53 medium, during the following 7 days. The method, then: as §1
In order to characterize these conical structures or “lateral root emergences” developing on the roots after hormonal induction, longitudinal sections (FIG. 3) and cross sections (FIG. 4) were produced in the control hairy roots after culture for 2 weeks in B53 medium and in hairy roots having lateral root emergences after culture for 2 weeks in B53 medium with 2,4-D auxin added.
The tissues were fixed in 4% p-formaldehyde overnight at 4° C., dehydrated in baths of ethanol of increasing concentrations, then enclosed in LR White resin. Sections with a thickness of 0.5 to 1 μm were produced using a Leica RM2265 microtome, stained with toluidine blue and observed using a Nikon Eclipse 90i microscope. The images were obtained using a Nikon Digital Sight DS-5Mc device, in visible light or in fluorescence to locate the GFP.

The mark [6] stands for this setting: lateral root emergences (LRE), 37° C., 3 flasks.

SMILES strings stand for the structures. Values joined by “and” are separate entries in the source; they are usually repeats but may differ in a detail not shown here. Identical values can stand only once.

As to `O=C(O)COc1ccc(Cl)cc1Cl` [2,4-D, 2,4-dichlorophenoxyacetic acid], the “GFP in the culture medium versus control hairy roots (Student's test)” value in assay [1] (2,4-D 0.5 mg/l versus medium without 2,4-D) is on record as “significant difference”. For the same molecule, the “GFP in the culture medium, 2 weeks after B53 + 2,4-D, average” value in assay [1] (average of 10 Petri dishes (n=10), 2,4-D 0.5 mg/l) was 164 ± 10.3 mg/L and 164 mg/L. Also, the “GFP in the culture medium, 1 week after B53 + 2,4-D, average” value in assay [1] (average of 10 Petri dishes, 2,4-D 0.5 mg/l) amounted to 52 mg/L. For the same molecule, the “secretion of GFP versus control cultures after treatment for 14 days” value in assay [2] is given as “doubled”. Besides, in assay [3] (7 Petri dishes, roots with lateral root emergences), the “concentration of GFP in the medium after 21 days” value was found to be 597 mg/L. For the same molecule, the “concentration of GFP in the medium, times greater than control hairy roots” value in assay [3] (after 21 days) came to 4.3. Also, the “activity of the human gastric lipase, times greater than conventional hairy roots (HR)” value in assay [4] (LRE versus HR) is listed as “approximately 3”. For the same molecule, in assay [4] (setting [6]), the “activity of the human gastric lipase in the culture medium at 14 days” value was 16 ± 0.6 pmol/min and the “activity of the human gastric lipase in the culture medium at 28 days” value came to 45 ± 0.3 pmol/min. In addition, the “morphology of the hairy roots after hormonal induction” value in assay [5] is recorded as “Numerous conical structures called “lateral root emergences” (LRE) then developed on the hairy roots”.
